# Where two headings read alike, the source gives them in different places.
# Columns and labels:
# Test in all cases: CTG assay, effect on proliferation ability of tumor cells
# Assay type in all cases: cell-based, human
# [1] = test system: Calu-3; settings: Calu-3, 168 h, read-out: IC50 (nM) Calu-3
# Experimental: (§1) Test method for the effect of camptothecin on the proliferation ability of tumor cells: The effect of camptothecin derivatives K1, K2, K3, K4, K5, K6, K7, K8, and K9 on the proliferation ability of tumor cells was tested using the CTG assay. Test cells (see Table 1) were digested, resuspended, and counted. The supernatant was removed by centrifugation, and the cell density was adjusted. Cell counting was performed with a cell counter: 20 µl of the cell suspension was aspirated, mixed with 20 µl of trypan blue, and 20 µl of the mixture was taken for cell counting. Cells were seeded into 96-well cell culture plates respectively, with 180 µl added to each well, and 1000 cells were plated per well. The plate was tapped gently to mix, and then placed in a 37°C cell incubator for incubation for 16 hours. Compounds were diluted with McCoy's 5A medium, and 20 µl was added to each well to achieve a maximum concentration of 100 nM, followed by 3-fold serial dilution with 10 concentration points. DMSO was used as the vehicle control, and 20 µl of McCoy's 5A medium was added to the blank control. The plate was tapped gently to mix, and then placed in a 37°C cell incubator for incubation for 7 days. After 7 days of incubation, the cell plate was taken out of the incubator, the culture medium was aspirated, 20 µl of culture medium was added to each well, and then 20 µl of CTG was added to each well. The plate was shaken on a shaker for 5 min and incubated at room temperature for 10 min. Then, 30 µl of the reaction solution was transferred to a Viewplate-96 white microplate (transparent bottom), and data analysis was performed on an EnVision microplate reader. [formula] Table 1. Overview of cell lines used in this screening
# [2] = test system: NCI-N87; settings: NCI-N87, 168 h, read-out: IC50 (nM) NCI-N87
# Experimental: as §1
# [3] = test system: HCT-116; settings: HCT-116, 168 h, read-out: IC50 (nM) HCT-116
# Experimental: as §1
# [4] = human lung adenocarcinoma cells, 7 days incubation, CTG
# [5] = human gastric cancer cells, 7 days incubation, CTG
# [6] = human colon cancer cells, 7 days incubation, CTG
Structure (SMILES),IC50 ([1]; Homo sapiens),IC50 ([2]; Homo sapiens),IC50 ([3]; Homo sapiens),"IC50 [1, 4]","IC50 [2, 5]","IC50 [3, 6]"
CC[C@@]1(O)C(=O)OCc2c1cc1n(c2=O)Cc2c-1nc1cc(F)c(C)cc1c2-c1cn(CCO)nn1 [Compound K1],0.22 nM,1.89 nM,0.77 nM,–,–,–
CC[C@@]1(O)C(=O)OCc2c1cc1n(c2=O)Cc2c-1nc1cc(F)c(C)cc1c2-c1cn(CCCO)nn1 [Compound K2],–,–,–,0.29 nM,2.21 nM,0.89 nM
CC[C@@]1(O)C(=O)OCc2c1cc1n(c2=O)Cc2c-1nc1cc(F)c(C)cc1c2-c1cn(CCCCO)nn1 [Compound K3],–,–,–,0.43 nM,3.11 nM,1.36 nM
CC[C@@]1(O)C(=O)OCc2c1cc1n(c2=O)Cc2c-1nc1cc(F)c(C)cc1c2-c1cnn(CCO)c1 [Compound K4],0.15 nM,1.72 nM,0.42 nM,–,–,–
CC[C@@]1(O)C(=O)OCc2c1cc1n(c2=O)Cc2c-1nc1cc(F)c(C)cc1c2-c1cnn(CCCO)c1 [Compound K5],–,–,–,0.18 nM,2.07 nM,0.35 nM
CC[C@@]1(O)C(=O)OCc2c1cc1n(c2=O)Cc2c-1nc1cc(F)c(C)cc1c2-c1cnn(CCCCO)c1 [Compound K6],–,–,–,0.28 nM,2.88 nM,0.78 nM
CC[C@@]1(O)C(=O)OCc2c1cc1n(c2=O)Cc2c-1nc1cc(F)c(C)cc1c2-c1ccn(CCO)n1 [Compound K7],–,–,–,1.13 nM,5.34 nM,2.24 nM
CC[C@@]1(O)C(=O)OCc2c1cc1n(c2=O)Cc2c-1nc1cc(F)c(C)cc1c2-c1ccn(CCCO)n1 [Compound K8],–,–,–,1.24 nM,6.76 nM,3.21 nM
CC[C@@]1(O)C(=O)OCc2c1cc1n(c2=O)Cc2c-1nc1cc(F)c(C)cc1c2-c1ccn(CCCCO)n1 [Compound K9],–,–,–,1.89 nM,7.82 nM,3.87 nM
